Activity calls are given as the source filed them. The rule behind the calls is not given here.
Key:
HepG2 = experiment: Antitumor activity against human HepG2 cells assessed as inhibition of cell growth by MTT assay; format: functional, cell-based
SiHa = experiment: Antitumor activity against human SiHa cells assessed as inhibition of cell growth by MTT assay; format: functional, cell-based
BeWo = experiment: Antitumor activity against human Bewo cells assessed as inhibition of cell growth by MTT assay; format: functional, cell-based
[1] = Antitumor activity against human HL60 cells assessed as inhibition of cell growth by MTT assay; format: functional, cell-based; details: HL-60
[2] = Antitumor activity against human SGC7901 cells assessed as inhibition of cell growth by MTT assay; format: functional, cell-based; details: SGC-7901
HeLa = experiment: Antitumor activity against human HeLa cells assessed as inhibition of cell growth by MTT assay; format: functional, cell-based
CCRF S-180 = experiment: Antitumor activity against mouse S180 cells implanted in mouse assessed as inhibition of tumor growth at 40 mg/kg; format: functional
[3] = Antitumor activity against human […] cells assessed as inhibition of cell growth by MTT assay; format: functional, cell-based
MCF7 = experiment: Antitumor activity against human MCF7 cells assessed as inhibition of cell growth by MTT assay; format: functional, cell-based
HL-60 [4] = experiment: Induction of apoptosis in human HL60 cells at 0.5 to 2 ug/mL by flow cytometry; format: functional, cell-based
HL-60 [5] = experiment: Induction of cell morphological changes in human HL60 cells at 2.5 to 10 ug/mL; format: functional, cell-based
[6] = Antitumor activity against human Bel7404 cells assessed as inhibition of cell growth by MTT assay; format: functional, cell-based; details: BEL-7404
A549 = experiment: Antitumor activity against human A549 cells assessed as inhibition of cell growth by MTT assay; format: functional, cell-based

Compound	IC50 (HepG2)	IC50 (SiHa)	IC50 (BeWo)	IC50 [1]	IC50 [2]	IC50 (HeLa)	inhibition in vivo at 40 mg/kg (CCRF S-180)	IC50 [3]	IC50 (MCF7)	Activity (HL-60 [4])	Activity (HL-60 [5])	IC50 [6]	IC50 (A549)
O=C(/C=C/c1ccc(O)c(O)c1)OC12CC3CC(CC(C3)C1)C2	30 µM	> 100 µM	> 100 µM	8.15 µM	29.7 µM	> 100 µM							
CCCCCCCCOC(=O)/C=C/c1ccc(O)c(O)c1	54.3 µM	45.9 µM	13.1 µM	8.29 µM	56 µM	34.9 µM							
O=C(/C=C/c1cc(O)c(O)c(Cl)c1)OCCc1ccccc1				7.01 µM	8.18 µM								
COc1cc(/C=C/C(=O)NC23CC4CC(CC(C4)C2)C3)cc([N+](=O)[O-])c1O		59.5 µM	68.2 µM	18.7 µM		66.8 µM							
O=P1(N(CCCl)CCCl)NCCCO1 (stereo unspecified) [CYCLOPHOSPHAMIDE ANHYDROUS]							54.8%						
O=C(/C=C/c1ccc(O)c(O)c1)Oc1ccc2ccccc2c1	14.8 µM	39.5 µM	0.36 µM	3.4 µM	44.8 µM	8.04 µM							
O=C(/C=C/c1ccc(O)c(O)c1[N+](=O)[O-])OCCc1ccccc1		17.2 µM	4.38 µM	18.2 µM		10.9 µM							
CCCCCCC(C)OC(=O)/C=C/c1ccc(O)c(O)c1 (stereo unspecified)	24.1 µM	49.9 µM	0.41 µM	5.1 µM	17.4 µM	38.2 µM							
O=C(/C=C/c1cc(O)c(O)c([N+](=O)[O-])c1)OC12CC3CC(CC(C3)C1)C2	3.84 µM	6.74 µM	5.63 µM	4.07 µM	4.6 µM	1.28 µM	36.7%	8.22 µM	4.09 µM	Active	Active	21.4 µM	4.41 µM
O=C(/C=C/c1cc(O)c(O)c(Br)c1)OCCc1ccccc1	4.44 µM	28.5 µM	8.24 µM	8.49 µM	6.75 µM	17.5 µM							
O=C(/C=C/c1ccc(O)c(O)c1)OCCCCc1ccccc1	48.4 µM	88.7 µM	5.8 µM	11.2 µM	40.1 µM	31.6 µM							
CCCCCCCOC(=O)/C=C/c1ccc(O)c(O)c1	44.7 µM	35.8 µM	2.77 µM	4.46 µM	34 µM	21.5 µM							
O=C(/C=C/c1ccc(O)c(O)c1)OCc1ccccc1 [BENZYL CAFFEATE]	85.6 µM	74.3 µM	28.2 µM	8 µM	70.5 µM	23.5 µM							
O=C(/C=C/c1ccc(O)c(O)c1)NC12CC3CC(CC(C3)C1)C2	30.1 µM	41.3 µM	1.09 µM	8.18 µM	29.8 µM	10.2 µM							
COC(=O)/C=C/c1ccc(O)c(O)c1 [METHYLCAFFEATE]	81.5 µM	60.3 µM	17.3 µM	12.3 µM	> 100 µM	52.5 µM							
CC(C)OC(=O)/C=C/c1ccc(O)c(O)c1	91.6 µM	48.2 µM	5.9 µM	11.8 µM	97.7 µM	30.1 µM							
CCCOC(=O)/C=C/c1ccc(O)c(O)c1	> 100 µM	44.2 µM	5.18 µM	11.8 µM	> 100 µM	28.6 µM							
CC(C)(C)OC(=O)/C=C/c1ccc(O)c(O)c1	69.7 µM	42 µM	3.47 µM	7.92 µM	80 µM	16.7 µM							
CCCCOC(=O)/C=C/c1ccc(O)c(O)c1 [BUTYL CAFFEATE]	> 100 µM	41 µM	5.42 µM	7.54 µM	> 100 µM	40.8 µM							
O=C(/C=C/c1ccc(O)c(O)c1)OC1CCCCC1	45.5 µM	51.5 µM	2.75 µM	8.32 µM	95.5 µM	23.9 µM							
O=C(/C=C/c1cc(O)c(O)c(Br)c1)NC12CC3CC(CC(C3)C1)C2		> 100 µM	60.9 µM	> 100 µM		33.2 µM							

Compound	IC50 (HepG2)	IC50 (SiHa)	IC50 (BeWo)	IC50 [1]	IC50 [2]	IC50 (HeLa)	inhibition in vivo at 40 mg/kg (CCRF S-180)	IC50 [3]	IC50 (MCF7)	Activity (HL-60 [4])	Activity (HL-60 [5])	IC50 [6]	IC50 (A549)
COc1cccc2c1C(=O)c1c(O)c3c(c(O)c1C2=O)C[C@@](O)(C(=O)CO)C[C@@H]3O[C@H]1C[C@H](N)[C@H](O)[C@H](C)O1 [DOXORUBICIN]		2.04 µM	1.07 µM	0.42 µM		0.33 µM							
CC1(C)C2CCC1(C)C(OC(=O)/C=C/c1cc(O)c(O)c(Br)c1)C2 (stereo unspecified)		29 µM	20 µM	15.2 µM		22.7 µM							
CCCCCCCCCCCCCCCCCCOC(=O)/C=C/c1ccc(O)c(O)c1	4.95 µM	> 100 µM	> 100 µM	10.2 µM	17.2 µM	> 100 µM							
COc1cc(/C=C/C(=O)OC23CC4CC(CC(C4)C2)C3)ccc1O		> 100 µM	70 µM	92.4 µM		59.9 µM							
CCC(C)OC(=O)/C=C/c1ccc(O)c(O)c1 (stereo unspecified)	95.8 µM	33.8 µM	3.18 µM	12.5 µM	> 100 µM	13.8 µM							
CCOC(=O)/C=C/c1ccc(O)c(O)c1 [ETHYL CAFFEATE]	64 µM	34.1 µM	6.2 µM	8.94 µM	> 100 µM	23.3 µM							
O=C(/C=C/c1ccc(O)c(O)c1)O[C@H]1C[C@@](O)(C(=O)O)C[C@H](O)[C@@H]1O	> 100 µM			> 100 µM	> 100 µM								
CC1(C)C2CCC1(C)C(OC(=O)/C=C/c1ccc(O)c(O)c1[N+](=O)[O-])C2 (stereo unspecified)		51.8 µM	9.31 µM	52.9 µM		13.9 µM							
O=C(/C=C/c1cc(O)c(O)c(Cl)c1)NC12CC3CC(CC(C3)C1)C2		18.9 µM	68.4 µM	35.6 µM		50 µM							
CC1(C)C2CCC1(C)C(OC(=O)/C=C/c1cc(O)c(O)c(Cl)c1)C2 (stereo unspecified)		33.8 µM	51.9 µM	18.6 µM	69.5 µM	38.7 µM							
COc1c(O)ccc(/C=C/C(=O)NC23CC4CC(CC(C4)C2)C3)c1[N+](=O)[O-]		38.9 µM	26.7 µM	73.2 µM		91.3 µM							
C#CCOC(=O)/C=C/c1ccc(O)c(O)c1	> 100 µM	39.1 µM	8.99 µM	12.3 µM	> 100 µM	19.2 µM							
COc1cc(/C=C/C(=O)NC23CC4CC(CC(C4)C2)C3)ccc1O		67.6 µM	> 100 µM	> 100 µM		> 100 µM							
O=C(/C=C/c1ccc(O)c(O)c1)Oc1ccccc1	50.8 µM	52.3 µM	30.7 µM	10.8 µM	90.3 µM	29.8 µM							
COc1cc(/C=C/C(=O)NC23CC4CC(CC(C4)C2)C3)cc(Br)c1O		82.4 µM	41.4 µM	49.8 µM		> 100 µM							
C=CCOC(=O)/C=C/c1ccc(O)c(O)c1	> 100 µM	30.7 µM	8.64 µM	11.5 µM	89.2 µM	67.2 µM							
CC1(C)C2CCC1(C)C(OC(=O)/C=C/c1ccc(O)c(O)c1)C2 (stereo unspecified)	31.4 µM	73.7 µM	35.9 µM	3.35 µM	12 µM	20.6 µM							
CC(C)(COC(=O)/C=C/c1ccc(O)c(O)c1)[N+](=O)[O-]	38.1 µM	30.5 µM	7.26 µM	9.32 µM	> 100 µM	23.6 µM							
COc1cc(/C=C/C(=O)NC23CC4CC(CC(C4)C2)C3)cc(Cl)c1O		34.8 µM	44.5 µM	67.9 µM		98.4 µM							
O=C(/C=C/c1ccc(O)c(O)c1)OCCc1ccccc1 [CAFFEIC ACID PHENETHYL ESTER]	40.9 µM	66.9 µM	2.96 µM	16.6 µM	14.3 µM	38 µM							
